Test results as given in BindingDB's records for doi:10.1021/jm000508c (Ontogen, 2001).
pIC50: −log10 of the molar value.

Columns and labels:
[1] = Inhibitory activity against P-selectin using cell-cell assay
[2] = Inhibitory activity against Selectin E using cell-cell assay

SMILES | pIC50 [1] | pIC50 [2]
CCCCCCCCCCCCCCCCNC(=O)C=Cc1ccc(-c2[nH]c(-c3ccc(-c4cc(C(=O)O)on4)cc3)nc2-c2ccc(C=CC(=O)O)cc2)cc1 [3-(4-{4-[4-(2-Carboxy-vinyl)-phenyl]-5-[4-(2-hexadecylcarbamoyl-vinyl)-phenyl]-1H-imidazol-2-yl}-phenyl)-isoxazole-5-carboxylic acid] | 5.10 | 4.70
CCCCCCCCCCCCCCCCNC(=O)C=Cc1ccc(-c2[nH]c(-c3ccc(C4=NOC(C(=O)O)C4)cc3)nc2-c2ccc(C=CC(=O)O)cc2)cc1 (stereo not drawn) [3-(4-{4-[4-(2-Carboxy-vinyl)-phenyl]-5-[4-(2-hexadecylcarbamoyl-vinyl)-phenyl]-1H-imidazol-2-yl}-phenyl)-4,5-dihydro-isoxazole-5-carboxylic acid] | 4.85 | 4.52
CCCCCCCCCCCCNC(=O)C=Cc1ccc(-c2[nH]c(-c3ccc(-c4cc(C(=O)O)on4)cc3)nc2-c2ccc(C=CC(=O)O)cc2)cc1 [3-(4-{4-[4-(2-Carboxy-vinyl)-phenyl]-5-[4-(2-dodecylcarbamoyl-vinyl)-phenyl]-1H-imidazol-2-yl}-phenyl)-isoxazole-5-carboxylic acid] | 3.30 | –

The remaining lines, values ahead:

pIC50 [1] | pIC50 [2] | SMILES
4.01 | < 4.00 | CCCCCCCCCCCCCCCCNC(=O)C=Cc1ccc(-c2[nH]cnc2-c2ccc(C=CC(=O)O)cc2)cc1 [3-(4-{5-[4-(2-Hexadecylcarbamoyl-vinyl)-phenyl]-1H-imidazol-4-yl}-phenyl)-acrylic acid]
3.91 | – | O=C(O)C=Cc1ccc(-c2nc(-c3ccc(C4=NOC(C(=O)O)C4)cc3)c(-c3ccc(C=CC(=O)NCCCc4ccccc4)cc3)[nH]2)cc1 (stereo not drawn) [3-[4-(2-[4-(2-Carboxy-vinyl)-phenyl]-5-{4-[2-(3-phenyl-propylcarbamoyl)-vinyl]-phenyl}-1H-imidazol-4-yl)-phenyl]-4,5-dihydro-isoxazole-5-carboxylic acid]
